Data from US9550763B2, “Heterocyclic ring and carbocyclic derivative” (Shionogi & Co., Ltd., priority 2012, dated 2017).

What follows are molecules tested against human P2X3 receptor (Homo sapiens (Human), UniProt P56373) (assay: Evaluation of human P2X3 receptor inhibitory activity (Test Example 1-2, FLIPR 384, 384-well, 150 nM ATP)). Details: C6BU-1 cell transfected with human P2X3 receptor gene; method of Test Example 1-2 (compounds I-301 to I-483); read-out: IC50 (human P2X3 receptor inhibitory activity).
human P2X3 receptor, sequence (P56373 whole entry): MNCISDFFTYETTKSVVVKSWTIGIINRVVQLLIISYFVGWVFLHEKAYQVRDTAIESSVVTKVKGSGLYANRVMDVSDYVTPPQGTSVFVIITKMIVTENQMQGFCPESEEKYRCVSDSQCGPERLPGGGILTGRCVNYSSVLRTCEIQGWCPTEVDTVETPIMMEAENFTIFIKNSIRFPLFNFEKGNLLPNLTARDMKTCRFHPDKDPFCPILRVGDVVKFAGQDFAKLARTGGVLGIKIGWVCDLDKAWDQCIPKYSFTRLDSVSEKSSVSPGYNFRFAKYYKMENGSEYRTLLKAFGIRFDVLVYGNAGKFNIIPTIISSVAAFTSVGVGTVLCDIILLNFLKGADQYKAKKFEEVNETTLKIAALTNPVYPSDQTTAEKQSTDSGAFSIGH
Assay type: cell-based
Method in brief: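 Human P2X3 stably expressed in C6BU-1 cells, Fluo-3-AM loaded, read on FLIPR at pH 7.5 HEPES buffer. Compound added 5 min before 150 nM ATP; peak/baseline fluorescence over 4 min gave inhibition (buffer instead of ATP = 100%), from which IC50 was derived.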

IC50 | SMILES
< 30000 nM | O=c1cc[nH]/c(=N\c2ccc(Oc3ccon3)cc2)n1Cc1ccc(Cl)cc1 [Compound I-447]

Same assay, conditions: human P2X3 receptor in C6BU-1 cells; Test Example 1-2 (compounds I-301 to I-483); read-out: P2X3 IC50

SMILES | IC50
Cc1nc(Nc2cc(=O)n(CC(C)(C)C(=O)O)c(=O)n2Cc2ccc(Cl)cc2)ccc1Oc1ccc(F)cn1 [Compound I-365] | 5 nM
COC(=O)c1ccc(Oc2ccc(/N=c3\[nH]cc(-c4nc(C)no4)c(=O)n3Cc3ccc(Cl)cc3)cc2)nn1 [Compound I-312] | 7 nM
COC(=O)[C@H](CO)NC(=O)c1c[nH]/c(=N\c2ccc(Oc3ccon3)cc2)n(Cc2ccc(Cl)cc2)c1=O [Compound I-446] | 47 nM
O=C1CCCN1c1c[nH]/c(=N\c2ccc(Oc3cccc(F)n3)cc2)n(Cc2ccc(Cl)cc2)c1=O [Compound I-333] | 149 nM
CCC(=O)Nc1c[nH]/c(=N\c2ccc(Oc3cccc(CC(=O)O)c3)cc2)n(Cc2ccc(Cl)cc2)c1=O [Compound I-355] | 53 nM
CCOC(=O)c1cn(Cc2ccc(Cl)cc2)c(Nc2ccc(Oc3ccc(F)cn3)cc2)cc1=O [Compound I-463, 1-(4-chloro-benzyl)-2-[4-(5-fluoro-2-pyridyloxy)phenylamino]-5-(ethoxycarbonyl)pyridin-4(1H)-one] | 26 nM
C=CCNC(=O)c1c[nH]/c(=N\c2ccc(Oc3ccon3)cc2)n(Cc2ccc(Cl)cc2)c1=O [Compound I-450] | 21 nM
O=C(NC1CCNC1=O)c1cn(Cc2ccc(Cl)cc2)c(Nc2ccc(Oc3cccc(F)n3)cc2)nc1=O (centres unmarked) [Compound I-389] | 10 nM
CSc1cccc(Oc2ccc(/N=c3\[nH]cc(N4CCCC4=O)c(=O)n3Cc3ccc(Cl)cc3)cc2)n1 [Compound I-334] | 838 nM
CC(C)c1c[nH]/c(=N\c2ccc(Oc3cccc(C#N)n3)cc2)n(Cc2ccc(Cl)cc2)c1=O [Compound I-321] | 150 nM
COC(=O)CCCn1c(=O)cc(Nc2ccc(Oc3ccc(F)cn3)c(C)n2)n(Cc2ccc(Cl)cc2)c1=O [Compound I-360] | 6 nM
O=C(NCC(=O)N1CCCCC1)c1cn(Cc2ccc(Cl)cc2)c(Nc2ccc(Oc3cccc(F)n3)cc2)nc1=O [Compound I-382] | 9 nM
CC(C)[C@H](NC(=O)c1cn(Cc2ccc(Cl)cc2)c(Nc2ccc(Oc3cccc(F)n3)cc2)nc1=O)C(N)=O [Compound I-380] | 4 nM
CCC(=O)Nc1c[nH]/c(=N\c2ccc(Oc3cccc(CC(=O)OC)c3)cc2)n(Cc2ccc(Cl)cc2)c1=O [Compound I-331] | 309 nM
O=C(Nc1c[nH]/c(=N\c2ccc(Oc3ccc(C(F)(F)F)nn3)cc2)n(Cc2ccc(Cl)cc2)c1=O)C1CCOCC1 [Compound I-435] | 3 nM
Cc1nnc(-c2c[nH]/c(=N\c3ccc(Oc4cccc(C#N)n4)cc3)n(Cc3ccc(Cl)cc3)c2=O)o1 [Compound I-327] | 34 nM
CCn1c(=O)[nH]c(Nc2ccc(Oc3cccc(C(=O)O)n3)cc2)c(Cc2ccc(Cl)cc2)c1=O [Compound I-457] | 9 nM
CC(C)c1c[nH]/c(=N\c2ccc(Oc3ccnc(C(=O)O)c3)cc2)n(Cc2ccc(Cl)cc2)c1=O [Compound I-409] | 24 nM
Cc1noc(-c2c[nH]/c(=N\c3ccc(Oc4cccc(C(N)=O)n4)cc3)n(Cc3ccc(Cl)cc3)c2=O)n1 [Compound I-316] | 13 nM
O=C(NC[C@@H]1CCCO1)c1cn(Cc2ccc(Cl)cc2)c(Nc2ccc(Oc3cccc(F)n3)cc2)nc1=O [Compound I-386] | 15 nM

SMILES | IC50
Cc1nc(Nc2cc(=O)n(CC(C)(C)C(=O)O)c(=O)n2C[C@H]2CC[C@H](C)CC2)ccc1Oc1ccc(F)cn1 [Compound I-445] | 7 nM
O=C(NC1CCCOC1)c1cn(Cc2ccc(Cl)cc2)c(Nc2ccc(Oc3cccc(F)n3)cc2)nc1=O (centres unmarked) [Compound I-383] | 13 nM
COC(=O)C(C)(C)Cn1c(=O)cc(Nc2ccc(Oc3ccc(F)cn3)c(C)n2)n(Cc2ccc(Cl)cc2)c1=O [Compound I-364] | 4 nM
O=C(NCC1CCCC1)c1cn(Cc2ccc(Cl)cc2)c(Nc2ccc(Oc3cccc(F)n3)cc2)nc1=O [Compound I-393] | 110 nM
CCOC(=O)c1cnc(Oc2ccc(/N=c3\[nH]cc(-c4nc(C)no4)c(=O)n3Cc3ccc(Cl)cc3)cc2)s1 [Compound I-311] | 31 nM
C[C@@H](NC(=O)c1cn(Cc2ccc(Cl)cc2)c(Nc2ccc(Oc3cccc(F)n3)cc2)nc1=O)C(N)=O [Compound I-443] | 36 nM
O=C(Nc1ccon1)c1cn(Cc2ccc(Cl)cc2)c(Nc2ccc(Oc3cccc(F)n3)cc2)nc1=O [Compound I-372] | 51 nM
COC(=O)c1cc(Oc2ccc(/N=c3\[nH]cc(Nc4ccon4)c(=O)n3Cc3ccc(Cl)cc3)cc2)ccn1 [Compound I-320] | 19 nM
O=C(NC1(CO)CCOCC1)c1cn(Cc2ccc(Cl)cc2)c(Nc2ccc(Oc3cccc(F)n3)cc2)nc1=O [Compound I-390] | 59 nM
C#CCNC(=O)c1c[nH]/c(=N\c2ccc(Oc3ccon3)cc2)n(Cc2ccc(Cl)cc2)c1=O [Compound I-344] | 4 nM
CCn1c(=O)[nH]c(Nc2ccc(Oc3cccc(C(N)=O)n3)cc2)c(Cc2ccc(Cl)cc2)c1=O [Compound I-458] | 15 nM
CCCn1c(=O)c(F)c(Nc2ccc(Oc3cccc(C(=O)O)c3)cc2)n(Cc2ccc(Cl)cc2)c1=O [Compound I-303] | 109 nM
Cn1ccc(NC(=O)c2cn(Cc3ccc(Cl)cc3)c(Nc3ccc(Oc4cccc(F)n4)cc3)nc2=O)n1 [Compound I-378] | 20 nM
CC(C)c1c[nH]/c(=N\c2ccc(Oc3cncc(C(=O)O)c3)cc2)n(Cc2ccc(Cl)cc2)c1=O [Compound I-401] | 12 nM
CC(c1ccc(F)cc1)n1cc(C(=O)NC2CCOCC2)c(=O)nc1Nc1ccc(Oc2cccc(F)n2)cc1 (centres unmarked) [Compound I-352] | 369 nM
O=C(NCC1CCCCO1)c1cn(Cc2ccc(Cl)cc2)c(Nc2ccc(Oc3cccc(F)n3)cc2)nc1=O (centres unmarked) [Compound I-388] | 29 nM
CCC(=O)Nc1c[nH]/c(=N\c2ccc(Oc3cccc(CCC(=O)OC)c3)cc2)n(Cc2ccc(Cl)cc2)c1=O [Compound I-330] | 366 nM
NC(=O)CNC(=O)c1cn(Cc2ccc(Cl)cc2)c(Nc2ccc(Oc3cccc(F)n3)cc2)nc1=O [Compound I-431] | 44 nM
COc1cn(Cc2ccc(Cl)cc2)c(Nc2ccc(Oc3cccc(F)n3)cc2)nc1=O [Compound I-351, 1-(4-chlorobenzyl)-2-[4-(6-fluoro-2-pyridyloxy)phenylamino]-5-methoxypyrimidin-4(1H)-one] | 98 nM
N#CCNC(=O)c1c[nH]/c(=N\c2ccc(Oc3ccc(F)cn3)cc2)n(Cc2ccc(Cl)cc2)c1=O [Compound I-426] | 15 nM

SMILES | IC50
O=C(NCc1ccccc1)c1c[nH]/c(=N\c2ccc(Oc3ccon3)cc2)n(Cc2ccc(Cl)cc2)c1=O [Compound I-451] | 104 nM
CC(=O)OCC(=O)NNC(=O)c1c[nH]/c(=N\c2ccc(Oc3ccon3)cc2)n(Cc2ccc(Cl)cc2)c1=O [Compound I-343] | 84 nM
CC(C)c1c[nH]/c(=N\c2ccc(Oc3cccc(C(=O)O)n3)cc2)n(Cc2ccc(Cl)cc2)c1=O [Compound I-353] | 6 nM
O=C(O)c1cccc(Oc2ccc(/N=c3\[nH]cc(N4CCCC4=O)c(=O)n3Cc3ccc(Cl)cc3)cc2)n1 [Compound I-336] | 41 nM
Cc1nc(Nc2cc(=O)n(C[C@H](C)C(=O)O)c(=O)n2Cc2ccc(Cl)cc2)ccc1Oc1ccc(F)cn1 [Compound I-363] | 8 nM
Cc1nc(CNC(=O)c2cn(Cc3ccc(Cl)cc3)c(Nc3ccc(Oc4cccc(F)n4)cc3)nc2=O)no1 [Compound I-392] | 128 nM
CC(c1ccc(Cl)cc1)n1cc(C(=O)NC2CCOCC2)c(=O)nc1Nc1ccc(Oc2cccc(F)n2)cc1 (centres unmarked) [Compound I-358] | 23 nM
CCCn1c(=O)cc(Nc2ccc(Oc3cccc(C#N)c3)c(C)n2)n(Cc2ccc(C)cc2)c1=O [Compound I-473] | 29 nM
CCCc1c[nH]/c(=N\c2ccc(Oc3cccc(C#N)n3)cc2)n(Cc2ccc(Cl)cc2)c1=O [Compound I-434] | 193 nM
NC(=O)c1noc(-c2c[nH]/c(=N\c3ccc(Oc4ccon4)cc3)n(Cc3ccc(Cl)cc3)c2=O)n1 [Compound I-441] | 69 nM
O=C(O)c1cccc(Oc2ccc(/N=c3\[nH]cc(C(F)(F)F)c(=O)n3Cc3ccc(Cl)cc3)cc2)n1 [Compound I-472] | 15 nM
CCOC(=O)c1noc(-c2c[nH]/c(=N\c3ccc(Oc4ccon4)cc3)n(Cc3ccc(Cl)cc3)c2=O)n1 [Compound I-437] | 124 nM
O=C(NCC1CC1)c1c[nH]/c(=N\c2ccc(Oc3cccc(F)n3)cc2)n(Cc2ccc(Cl)cc2)c1=O [Compound I-407] | 68 nM
C#CCNC(=O)c1c[nH]/c(=N\c2ccc(Oc3cccc(F)n3)cc2)n(Cc2ccc(Cl)cc2)c1=O [Compound I-406] | 8 nM
CC(C)c1c[nH]/c(=N\c2ccc(Oc3ncc(C(=O)O)s3)cc2)n(Cc2ccc(Cl)cc2)c1=O [Compound I-412] | 9 nM
COc1cn(Cc2ccc(Cl)cc2)c(Nc2ccc(Oc3cccc(C(N)=O)n3)cc2)nc1=O [Compound I-403] | 243 nM
CC(C)c1c[nH]/c(=N\c2ccc(Oc3ccc(C(=O)O)cn3)cc2)n(Cc2ccc(Cl)cc2)c1=O [Compound I-400] | 16 nM
Cc1nc(Nc2cc(=O)n(CC(F)(F)C(=O)O)c(=O)n2Cc2ccc(Cl)cc2)ccc1Oc1ccc(F)cn1 [Compound I-405] | 5 nM
